Reference: US10494404B2, “Quinolinium conjugates of cyclosporin” (priority 2014, dated 2019)

Columns and labels:
[1] = system: Ca^2+ mediated PT pore formation; assay: Calcium retention capacity (CRC) assay, isolated WT mouse liver mitochondria; format: biochemical; details: 8 nM
Description: In order to assess the efficiency of compounds on Ca^2+ mediated PT pore formation we measured calcium retention capacity (CRC) of isolated mouse liver mitochondria. […] Energised mitochondria take up Ca^2+, resulting in a declining fluorescent signal following the Ca^2+ bolus induced peak. Mitochondria take up and buffer Ca^2+ up to a threshold when intramitochondrial [Ca^2+] reaches threshold to induce PT. […] The amount of Ca^2+ required to induce PT characterizes its Ca^2+ sensitivity and defines mitochondrial CRC. Inhibition of CypD, the Ca^2+ sensor of PT, thus leads to increased CRC.
Further experiments were carried out using the techniques discussed in Example 4.
Subcellular fractionation was performed as previously described (Astin et al, 2013). […] At 4° C., the liver was rinsed in PBS to remove excess blood, and any fat and connective tissue was eliminated. PBS was then replaced with isolation buffer containing 1 mM PMSF, and the liver was chopped into pieces (approximately 2 mm in length). Tissue was then homogenized in this solution until no solid matter remained, and then centrifuged at 800G for 10 minutes at 4° C. The nuclear pellet was then discarded, and the post nuclear supernatant retained, and centrifuged at 10300G for another 10 minutes at 4° C. The postmitochondrial supernatant was discarded, and the mitochondrial pellet was resuspended in isolation buffer and PMSF, and kept on ice. Protein levels were quantified using a ThermoScientific BCA protein quantification assay, as per manufacturer's instructions.
Isolated mitochondria were resuspended (500 μg protein/ml) in MSK buffer (75 mM mannitol, 25 mM sucrose, 5 mM potassium phosphate monobasic, 20 mM Tris-HCl, 100 mM KCl, and 0.1% bovine serum albumin, pH 7.4) supplemented with 10 mM succinate, 1 μM rotenone and 1 μM Fluo5N. 200 μl mitochondrial suspension per well was used in 96 well microplates. Compounds were incubated for ten minutes before the plate was assayed in a Fluostar Optima plate reader, using Ex/Em filters at 480/520 […]; CaCl2 was injected approximately every 6.5 minutes for 80 minutes (12 total injections, final concentration of 75 μM). To calculate % inhibition of Ca^2+ induced pore opening, first areas under each curve were calculated, and controls without CaCl2 addition were subtracted as background. The background corrected values were then expressed as the fraction of controls without mitochondria, representing the total amount of Ca^2+ added, unbuffered by mitochondria. Percentage inhibition for each [compound] was then calculated as the % of the corresponding value for the untreated condition. […] For experiments with CypD −/− mice, 100 ul mitochondrial suspension per well was used. CaCl2) was injected approximately every 6.5 minutes for 135 minutes (20 total injections, final concentration of 266 μM). Data were background corrected and expressed as the fraction of controls without mitochondria, and then normalised to the wild type no drug condition. Significance was assessed by one way ANOVA.

Cylophilin D (CypD) = Cylophilin D (CypD) (Homo sapiens, UniProt P30405); assay: Cyclophilin D competitive fluorescence polarization assay; details: competitive FP assay; FP-CsA 45 nM, enzyme 40 nM; read-out: Ki for cylophilin D binding
Description: A competitive fluorescence polarization assay (FP-assay) was used.
Polarization was determined by measuring the ratios between parallel and perpendicular polarized light and calculated as described by Roehrl et al 2004.
Titration of a single probe concentration against different enzyme concentrations was used to determine the dissociation constant (Kd) (Nikolovska et al 2004). The inhibitor constant (Ki) was calculated with the equation shown below in Equation A. (Nikolovska et al 2004).
Three replicates were used for this experiment. […] DMSO % in total solution should remain lower than 1%.

HepG2 cells = assay: HepG2 high content screening of cell health markers; format: cell-based; details: HepG2, 72 h exposure
Description: HepG2 cells were plated on 96-well tissue culture treated black walled clear bottomed polystyrene plates, 100 μL, (3000 cells) per well. After 24 hours the cells were dosed with the test compounds at a range of concentrations. At the end of the incubation period, the cells were loaded with the relevant dye/antibody for each cell health markers set out below. The plates were then scanned using an automated fluorescent cellular imager [ArrayScan VTI (Thermo Scientific Cellomics)].
The following cell health markers were measured: • a. Cell count—a decreasing number of cells per well indicates toxicity due to necrosis, apoptosis or a reduction in cellular proliferation. • b. Nuclear area—an increase in nuclear size indicates necrosis or G2 cell cycle arrest and a decrease indicates apoptosis. • c. DNA structure—an increase in DNA structure indicates chromosomal instability and DNA fragmentation. • d. […]
HepG2 cells were seeded in black, clear-bottom 96-well tissue culture plates at a density of 3000 cells per well. […] Cell count, nuclear size and DNA structure were also measured Hoechst 33342 (Life Technologies). Following staining of the HepG2 cells fluorescence was analyzed by image acquisition with a Thermo Fisher Cellomics® ArrayScanVTI High Content Screening Reader (ThermoFisher Scientific Inc., Waltham, Mass.) and vHCS™ view software (ThermoFisher Scientific Inc.). […]

Chain of Cylophilin D (CypD) (P30405 30-207): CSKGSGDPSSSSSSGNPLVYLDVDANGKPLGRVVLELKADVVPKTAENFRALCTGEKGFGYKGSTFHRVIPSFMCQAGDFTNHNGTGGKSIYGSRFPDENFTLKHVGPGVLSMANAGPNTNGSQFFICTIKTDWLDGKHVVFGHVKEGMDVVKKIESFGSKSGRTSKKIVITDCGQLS

SMILES	inhibition of Ca2+ mediated PT pore formation [1]	Ki (Cylophilin D (CypD))	toxicity (cell health markers) compared with unmodified CsA (HepG2 cells)
CC[C@@H]1NC(=O)[C@H]([C@H](O)[C@H](C)C/C=C/CCC[n+]2ccc(N(C)C)c3ccc(C(F)(F)F)cc32)N(C)C(=O)[C@H](C(C)C)N(C)C(=O)[C@H](CC(C)C)N(C)C(=O)[C@H](CC(C)C)N(C)C(=O)[C@@H](C)NC(=O)[C@H](C)NC(=O)[C@H](CC(C)C)N(C)C(=O)[C@H](C(C)C)NC(=O)[C@H](CC(C)C)N(C)C(=O)CN(C)C1=O [Compound 3, [Gly(1S,2R,E)-10-(4-dimethylamino-7-trifluoromethylquinolinium)1-hydroxy-2-methyldec-4-enoic acid]^1 CsA]	retain high levels inhibition		
C=CCC1C(=O)N(C)[C@@H](CC(C)C)C(=O)N[C@@H](C(C)C)C(=O)N(C)[C@@H](CC(C)C)C(=O)N[C@@H](C)C(=O)N[C@H](C)C(=O)N(C)[C@@H](CC(C)C)C(=O)N(C)[C@@H](CC(C)C)C(=O)N(C)[C@@H](C(C)C)C(=O)N(C)[C@@H]([C@H](O)[C@H](C)C/C=C/CCC[n+]2ccc(N(C)C)c3ccc(C(F)(F)F)cc32)C(=O)N[C@@H](CC)C(=O)N1C (stereo partly shown) [Compound 4]	retain high levels inhibition	73 nM	
CC[C@@H]1NC(=O)[C@H]([C@H](O)[C@H](C)C/C=C/CCC(=O)Nc2ccc(NCc3ccc(F)cc3)nc2N)N(C)C(=O)[C@H](C(C)C)N(C)C(=O)[C@H](CC(C)C)N(C)C(=O)[C@H](CC(C)C)N(C)C(=O)[C@@H](C)NC(=O)[C@H](C)NC(=O)[C@H](CC(C)C)N(C)C(=O)[C@H](C(C)C)NC(=O)[C@H](CC(C)C)N(C)C(=O)CN(C)C1=O [Reference Compound 1, [Gly-(1S,2R,E)-7-(flupirtine)-1-hydroxy-2-methyloct-4-enamide]^1 CsA, reference compound]			A similar reduction in toxicity was not observed
CC[C@@H]1NC(=O)[C@H]([C@H](O)[C@H](C)C/C=C/CCC[n+]2ccc(O)c3ccccc32)N(C)C(=O)[C@H](C(C)C)N(C)C(=O)[C@H](CC(C)C)N(C)C(=O)[C@H](CC(C)C)N(C)C(=O)[C@@H](C)NC(=O)[C@H](C)NC(=O)[C@H](CC(C)C)N(C)C(=O)[C@H](C(C)C)NC(=O)[C@H](CC(C)C)N(C)C(=O)CN(C)C1=O [Compound 5, [Gly-(1S,2R,E)-8-(4-hydroxyquinolinium)-1-hydroxy-2-methyloct-4-ene]^1 CsA]		64 nM	
C/C=C/C[C@@H](C)[C@@H](O)[C@H]1C(=O)N[C@@H](CC)C(=O)N(C)C(C/C=C/CCC[n+]2ccc(O)c3ccccc32)C(=O)N(C)[C@@H](CC(C)C)C(=O)N[C@@H](C(C)C)C(=O)N(C)[C@@H](CC(C)C)C(=O)N[C@@H](C)C(=O)N[C@H](C)C(=O)N(C)[C@@H](CC(C)C)C(=O)N(C)[C@@H](CC(C)C)C(=O)N(C)[C@@H](C(C)C)C(=O)N1C (stereo partly shown) [Compound 6, [Sar-(E)-Hexen-2-yl-6-(4-hydroxy)quinolinium]^3 CsA]		46 nM	
C/C=C/C[C@@H](C)[C@@H](O)[C@H]1C(=O)N[C@@H](CC)C(=O)N(C)C(C/C=C/CCC[n+]2cccc3ccccc32)C(=O)N(C)[C@@H](CC(C)C)C(=O)N[C@@H](C(C)C)C(=O)N(C)[C@@H](CC(C)C)C(=O)N[C@@H](C)C(=O)N[C@H](C)C(=O)N(C)[C@@H](CC(C)C)C(=O)N(C)[C@@H](CC(C)C)C(=O)N(C)[C@@H](C(C)C)C(=O)N1C (stereo partly shown) [Compound 2, [Sar-(E)-Hexen-2-yl 6-quinolinium]^3 CsA]		125 nM	
